Experimental data reported in patent US20110306554A1, “PEPTIDE CAPABLE OF BINDING TO IMMUNOGLOBULIN” (priority 2009, published 2011).
Entries after “also recorded” stand apart in the source; their conditions may differ. Non-standard residues stand in square brackets, D forms with d. No end group written: not given here.

Legend:
[1] = system: Cy3-labeled goat anti-mouse immunoglobulin (IgG); assay: Peptide array of C1q subunit 15-mers probed with Cy3-labeled immunoglobulin; type: binding; details: peptide spots on glass array, 4° C., 12 hours, background fluorescence intensity is 2.6
Text: The amino acid sequences of the A, B, and C subunit chains of human C1q, are shown in SEQ ID NOs: 17 to 19, and the nucleotide sequences in SEQ ID NOs: 20 to 22. Based on each of the amino acid sequences, sequences having 15 amino acids (residues) from each subunit and shifted at intervals of three amino acids, were synthesized on a glass array as synthetic peptides (Peptide Nos. 1 to […], and 193 to 270 for the A, B, and C chains, respectively). The synthesis of each peptide was carried out at a specific location on the array, so as to prepare a peptide array which included the synthetic peptides covering the entire amino acid sequences of the subunits of C1q. The preparation of the array was outsourced to JPT Peptide Technologies GmbH.
To the peptide array was applied 330 μl of an Cy3-labeled goat anti-mouse immunoglobulin (IgG) (1 mg/ml; Zymed Laboratories) diluted 1000-fold with PBS (10 mM phosphate buffer, pH 7.0, 0.1 M NaCl), and the array was sealed and then incubated at 4° C. for 12 hours. After that, the array was washed once with methanol and then 5 times with Milli-Q water for 5 minutes each. The array slide was centrifuged and dried, and scanned with a fluorescence scanner (Agilent DNA microarray scanner; Agilent Technologies), so that fluorescence intensity was quantified at the respective peptide spots on the array using a software (Feature Extraction software; Agilent Technologies). Several spots displaying strong fluorescence intensities were detected. […] Note that in the description, the amino acids are denoted by the one-letter code known in the art.

[2] = system: Monoclonal antibody cocktail-induced arthritis mice; assay: Arthritis suppressing effects on arthritis-induced mice, Part 2; type: in vivo; details: 10 mg/kg intraperitoneal twice a day, 14 consecutive days from day 0
Protocol: Monoclonal antibody cocktail-induced arthritis mice were used to examine arthritis suppressing effects of peptides which are indicated as R1, R2, and R5 in Example 2. Arthritis was caused by intravenous administration of 2 mg/mouse of an arthritis-inducing monoclonal antibody cocktail and three days later, intraperitoneal administration of 50 μg/mouse of LPS. The peptides were administered at a dose of 10 mg/kg twice a day for a period of 14 consecutive days from the day of administration of the arthritis-inducing monoclonal antibody cocktail (day 0), and arthritis suppressing effect was examined in terms of clinical score. Experiments were carried out in a similar way to those in the section (1) in Example 3.
The required amount was calculated for each peptide, based on the animal weight. Each peptide solution was prepared to make a concentration of 1 mg/ml in a 0.5% methyl cellulose solution, and the prepared peptide solution was cold stored.
Measurement of body weight of animals was made on days 0, 3, 6, 9, 12, and 14 during the study period, with day 0 being the day of administration of the arthritis-inducing monoclonal antibody cocktail. Observation of general condition was made on a daily basis.
Mice were weighed on the day prior to start of administration and randomly assigned to groups using a grouping software, so that the average body weight values of the groups were approximately equal. To twenty 7-week-old mice, the arthritis-inducing monoclonal antibody cocktail was intravenously administered at a dose of 2 mg/mouse on day 0, and LPS was intraperitoneally administered at a dose of 50 μg/mouse on day 3.
Each peptide solution was given via intraperitoneal administration twice a day, morning and afternoon, from day 0. As a control, a 0.5% solution of methyl cellulose was intraperitoneally administered twice a day from day 0. A needle (26G; Terumo) and a syringe (1.0-ml capacity; Terumo) were used for administration. […]
Results of examinations were expressed by mean value±standard error and analyzed using EXSAS (Version 7.1.6, Arm Systex Co., Ltd.). […]

[3] = system: type III allergic (Arthus) reaction-induced rats; assay: Immune-complex disease suppression in type III allergic (Arthus) reaction-induced rats, Part 1; type: in vivo
Protocol: Using sixty-four 7-week-old male Slc:Wistar rats, examinations were made on peptides R1, R2, and R5, in two series of examinations, each using a different method of administration (intraperitoneal administration and tail vein administration). Acclimation was carried out by giving normal solid chow CRF-1 for a period of 9 days or longer. The back of the animals was shaved on the day prior to administration, and a mixed solution of OVA and Evans blue dye was administered into the tail vein on the day of administration. Each peptide solution was administered intraperitoneally or into the tail vein 30 minutes or 50 minutes after the administration of the mixed solution of OVA and Evans blue dye, respectively. For intracutaneous administration of an anti-OVA solution, […] was intracutaneously administered in the back of animals at a dose of 0.1 ml/site 30 minutes or 10 minutes after the administration of the tested substance in the case of intraperitoneal or intravenous administration, respectively, so as to generate a local Arthus reaction. After the reaction was allowed to be generated for 4 hours, the animals were euthanized, the blood was removed thoroughly, and then the dorsal skin was exfoliated. The Arthus reaction sites on the exfoliated skin were punched out, and the Evans blue dye was extracted from the punched skin overnight. The amount of dye leakage was quantified by measuring absorbance for the Evans blue dye with a spectrophotometer and using a calibration curve (see, H. Okamoto, Y. Iwahisa, and M. Terasawa, “Suppression of the Arthus reaction by Y-24180, a potent and specific antagonist of platelet-activating factor”, Agents Actions, 35:149-158 (1992), for experimental procedures used in Example 4).
A predetermined amount of each peptide (peptides R1, R2, and R5) was dissolved in physiological saline to make a 20 mg/ml solution. A 2 mg/ml solution was prepared by diluting the 20 mg/ml solution 10-fold with physiological saline. A 5 mg/ml solution was prepared by dissolving each peptide in a predetermined amount in physiological saline to make a prepared solution.
A mixed solution of OVA and Evans blue dye was administered into the tail vein at a dose of 2 ml/kg. Each peptide solution was administered intraperitoneally or into the tail vein 30 minutes or 50 minutes after the administration of the mixed solution of OVA and Evans blue dye, respectively. For intracutaneous administration of an anti-OVA solution, […] was intracutaneously administered in the back of animals at a dose of 0.1 mL/site 30 minutes or 10 minutes after the administration of the tested substance in the case of intraperitoneal or intravenous administration, respectively, so as to generate a local Arthus reaction. Intracutaneous administration was conducted at 2 sites for PBS and at 2 sites for the anti-OVA solution per animal. After the reaction was allowed to be generated for 4 hours, the animals were euthanized by decapitation under ether anesthesia, the blood was removed thoroughly, and then the dorsal skin was exfoliated. The Arthus reaction sites on the exfoliated skin were punched out and subjected to dye extraction.
Several cuttings were made in the skin strips that were punched out with a punch. […] The amount of dye leakage was calculated from a calibration curve of known amounts of the dye.
The mean value (mean)±standard deviation (SD) for each group was calculated with body-weight measurements and amounts of dye leakage. […]

[4] = system: Monoclonal antibody cocktail-induced arthritis mice; assay: Arthritis suppressing effects on arthritis-induced mice, Part 4; type: in vivo; details: intraperitoneal 100 mg/kg once a day from day 4; methotrexate 0.1 mg/kg
Protocol: Monoclonal antibody cocktail-induced arthritis mice were used to examine arthritis suppressing effects of peptides which are indicated as R13 in the section (3) in Example 2 and as R19 and R21 in the section (4) in Example 2. Arthritis was caused by intravenous administration of 2 mg/mouse of an arthritis-inducing monoclonal antibody cocktail and three days later, intraperitoneal administration of 50 μg/mouse of LPS. The peptides […] days from four days after the administration of the arthritis-inducing monoclonal antibody cocktail, and arthritis suppressing effect was examined in terms of clinical score and hind-limb volume determination.
The required amount was calculated for each peptide, based on the animal weight. […]
Measurement of body weight of animals was made on days 0, 3, 6, 9, 12, and 14 during the study period, with day 0 being the day of administration of the arthritis-inducing monoclonal antibody cocktail. Observation of general condition was made on a daily basis. […]
Results of examinations were expressed by mean value±standard error and analyzed using EXSAS (Version 7.1.6, Arm Systex Co., Ltd.). […] Quantitative data, such as body weights and leg volumes, were subjected to Bartlett's test, followed by Dunnett's multiple comparison test when the variance was uniform or Steel's multiple comparison test when the variance was not uniform.

[5] = biological target: Cy3-labeled goat anti-mouse immunoglobulin (IgG) (goat); assay: peptide array on glass, Cy3-labelled goat anti-mouse IgG, fluorescence scanner; background 2.6
[6] = intraperitoneal administration, 10 or 100 mg/kg
[7] = tail vein administration, 10 mg/kg

Fluorescence intensity [5]	Molecule	Fluorescence intensity [1]	also measured
–	CKVPGLYYFVYHASH (Immunoglobulin binding peptide) [R6]	65,313	–
–	KFTCKVPGLYYFVYH (Immunoglobulin binding peptide) [compound 245]	65,311	–
–	PGLYYF (Immunoglobulin binding peptide) [R1]	–	arthritis suppressing effect (clinical score) [2]: Arthritis suppressing effects were observed; also recorded: arthritis was suppressed; effect of immune-complex disease suppression (dye leakage) [3, 6]: clear and satisfactory effects of immune-complex disease suppression; also recorded: suppressed; effect of immune-complex disease suppression (dye leakage) [3, 7]: clear and satisfactory effects of immune-complex disease suppression; also recorded: suppressed
–	dSdTGdKdFdTdSdKdVdPGdLdYdYdF ([dS][dT]G[dK][dF][dT][dS][dK][dV][dP]G[dL][dY][dY][dF]) [R21]	–	arthritis-suppressing effect (clinical score) compared with methotrexate [4]: arthritis-suppressing effect comparable to or greater than that of methotrexate
–	FTCKVPGLYYFTYHA (Immunoglobulin binding peptide) [R4]	65,311	–
–	CKVPGLYYF (Immunoglobulin binding peptide) [R2]	–	arthritis suppressing effect (clinical score) [2]: Arthritis suppressing effects were observed; also recorded: arthritis was suppressed; effect of immune-complex disease suppression (dye leakage) [3, 6]: clear and satisfactory effects of immune-complex disease suppression; also recorded: suppressed; effect of immune-complex disease suppression (dye leakage) [3, 7]: clear and satisfactory effects of immune-complex disease suppression; also recorded: suppressed
–	SGKFTCKVPGLYYFT (Immunoglobulin binding peptide) [R3]	65,300	–
65300	FTCKVPGLYYFTYHA [peptide R4 (…)]	–	–
65300	STGKFTCKVPGLYYF [peptide R5 (…)]	–	–
65300	CKVPGLYYFVYHASH [peptide R6 (…)]	–	–
65300	KFTCKVPGLYYFVYH [Peptide No. 245 (…)]	–	–
65300	SGKFTCKVPGLYYFT [peptide R3 (…)]	–	–
